Experimental data reported in patent US6500823B1, “Unsaturated hydroximic acid derivatives as per abstract inhibitors” (N-Gene Research Laboratories, Inc., priority 1998, dated 2002).
Where a name gives a salt, the structure may show the parent alone.

Legend:
[1] = biological target: T1, poly-ADP-ribose polymerase from rat liver (Rattus norvegicus, UniProt P27008); experiment: In vitro PARP inhibition on isolated enzyme; type: biochemical; details: isolated rat liver enzyme; ± SEM from four parallel measurements; read-out: PARP I0.5 mg/l (converted)
T1 construct: We have isolated the poly-ADP-ribose polymerase from rat liver; from tissue; host or cells: rat liver
T1 sequence (P27008 whole entry): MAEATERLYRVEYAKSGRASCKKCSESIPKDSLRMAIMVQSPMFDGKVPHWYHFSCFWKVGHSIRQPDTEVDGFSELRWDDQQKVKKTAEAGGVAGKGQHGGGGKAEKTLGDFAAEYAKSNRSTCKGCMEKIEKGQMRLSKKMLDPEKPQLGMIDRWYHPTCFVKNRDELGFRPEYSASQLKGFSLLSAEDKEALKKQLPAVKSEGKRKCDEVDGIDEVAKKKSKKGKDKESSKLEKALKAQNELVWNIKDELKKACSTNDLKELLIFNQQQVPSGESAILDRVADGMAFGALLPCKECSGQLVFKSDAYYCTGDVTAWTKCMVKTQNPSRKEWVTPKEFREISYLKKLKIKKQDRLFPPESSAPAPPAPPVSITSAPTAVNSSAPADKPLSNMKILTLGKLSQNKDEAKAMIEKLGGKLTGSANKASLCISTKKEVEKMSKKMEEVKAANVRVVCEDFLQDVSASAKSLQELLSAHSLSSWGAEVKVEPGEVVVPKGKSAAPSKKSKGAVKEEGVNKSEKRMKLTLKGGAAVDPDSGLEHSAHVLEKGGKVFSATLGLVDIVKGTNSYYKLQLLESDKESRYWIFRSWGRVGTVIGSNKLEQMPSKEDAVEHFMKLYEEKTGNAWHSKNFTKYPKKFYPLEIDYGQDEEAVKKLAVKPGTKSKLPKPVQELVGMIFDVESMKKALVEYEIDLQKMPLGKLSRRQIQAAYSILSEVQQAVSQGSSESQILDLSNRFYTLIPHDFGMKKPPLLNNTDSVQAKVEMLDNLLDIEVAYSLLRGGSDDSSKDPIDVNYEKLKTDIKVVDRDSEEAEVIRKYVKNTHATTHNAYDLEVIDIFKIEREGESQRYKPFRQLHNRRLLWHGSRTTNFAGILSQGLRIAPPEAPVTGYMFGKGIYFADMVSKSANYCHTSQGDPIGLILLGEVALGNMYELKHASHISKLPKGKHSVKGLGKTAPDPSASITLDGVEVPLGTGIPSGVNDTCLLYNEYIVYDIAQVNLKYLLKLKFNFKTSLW
Method: We have isolated the poly-ADP-ribose polymerase from rat liver according to the article Shah.G. M.,Anal Biochem, 227, 1-13 (1995).
We have determined the PARP activation in 130 μl of reaction mixture, which consists of: 100 mM Tris-HCl puffer, pH 8.0, 10 mM MgCl2, 10% glycerol, 1.5 mM DTT, 100 μg of (32P), or (3H), NAD+, 10 μg of histone. We have stopped the reaction after 10 minutes with 8% perchloric acid and seperated the protein through centrifugation (10 minutes, 10.000×g). We have washed the precipitate with 8% perchloric acid, and we measured the radioactivity connected to the protein with scintillation counter.

male SPRD rats = experiment: Reperfusion induced arrhythmia after LAD occlusion, survival rate; type: in vivo, rat; details: for responders at 1 mg/kg / responders at 5 mg/kg: Rattus norvegicus, iv, read-out: % SURV; for responders at 5 mg/kg: control 15.38; for effect on survival of reperfusion arrhythmia, in words: compared with Example 2 (100% survival)
Method: Experiments were carried out in male SPRD rats (acceptable body weight range: 300-350 g). The animals were anesthetized with sodium pentobarbital (Nembutal®: 60 mg/kg intraperitoneally) and remained breathing spontaneously. The animals were ventilated with respirator (MTA Kutesz) by using trachea cannule which was inserted after tracheotomy. The standard lead of the ECG II is monitored. Right femoral artery was catheterized and connected to a pressure transducer (BPR-01, Experimetria, Hungary), a preamplifier and pulsotachometer (HG-M, Experimetria, Hungary) for arterial blood pressure and heart rate measurement, respectively. The external jugular vein was cannulated for drug administration. After thoracotomy a silk (braided, coated 4-0) was placed under the left anterior coronary (LAD) artery. After a few minutes' stabilization period, a 5 min occlusion of LAD artery was applied, followed by a 10 min reperfusion period. The survival rate was evaluated.

CD-1 female mice = experiment: Prevention of streptozotocin (SZ)-induced type I diabetes mellitus on mice, blood glucose; type: in vivo, mouse
Method: The experiments were carried out on CD-1 female mice weighing 17-19 g (Charles River, Hungary). The animals were divided into three groups. Each group consisted of 10 animals. The first group received 160 mg/kg of streptozotocin, i.p. (Sigma), the second group received 160 mg/kg of streptozotocin, and 200 mg/kg of the compound of Example 2 p.o., the third group served as the control. The blood glucose concentration was measured on the third day. The animals were killed, serum samples were taken for insulin determination, and pancreases were removed for histological studies. The blood glucose concentrations can be seen in Table 3.

HepG2 cells = experiment: LDH enzyme activity in hypoxia exposed HepG2 cells; type: cell-based; details: Homo sapiens, 30 μg/ml, hypoxia 1% O2 24 hours, Hypoxic control = 100, read-out: Relative LDH content, %
Method: HepG2 cell were cultured in DMEM medium supplemented with 10% FCS in 5% CO2 containing air at 37° C. 10^5 cells were plated in the wells of Costar 24-well culture plates in 1 ml medium. On the following day, cells were treated with the test compounds in a concentration of 30 μg/ml, then cells were exposed to hypoxia treatment (1% O2, 5% CO2 in nitrogen gas) for 24 hours. A part of the control cultures were treated with water used as the solvent, and another part of them was not exposed to hypoxia. At the end of the hypoxic treatment, medium was removed and cells were washed twice with cold PBS. Cells lysates were prepared in 0.05% Triton X-100 containing phosphate buffer (0.05 M) and after centrifugation (2 min. […]) the LDH activity of the supernatant was determined on the basis of NADH consumption in the presence of sodium piruvate substrate.
The LDH activity of the cells treated with the test compounds and compared to the activity of the control exposed to hypoxia is shown in Table 6.

[2] = test system: mouse HSP-70 gene promoter in mouse fibroblast L929 cells; experiment: HSP-70 promoter-luciferase reporter gene assay; type: cell-based; details: Control = 100; 10 μl of 10^-2 M solution to 1 ml culture, 30 min, 1 hour regeneration
From the text: The activity of HSP-70 was studied by reporter gene assay forming a DNA hybrid. To the promoter sequence of HSP-70 encoding the heat shock protein was fused a gene of a protein that can be detected by a well-measurable enzyme activity. Biotechnological processes were used. As reporter gene luciferase enzyme was employed, the activity of which can be well determined by luminescence measurement. If the promoter of the gene of the luciferase enzyme is substituted by the promoter of the HSP-70 gene, then the change in the activity of the luciferase enzyme i.e. the change of the frequency of the transcription from the gene correlates with the frequency of the transcription of the HSP-70 gene that proceeds in the given circumstances. In this way, if a substance or process influences the expression of the HJSP-70 gene, the effect can be studied through the measurement of the luciferase enzyme activity. The effect of the substances to be tested on the HSP-70 expression was studied in such an experimental system.
A double-stranded DNA circular molecule i.e. a plasmid containing the HSP-70 reporter gene was constructed to perform the measurements. An almost 600 bp long sequence of the mouse HSP-70 gene promoter (5′ direction from the start site of the gene) was fused to the coding sequence of the luciferase gene originated from Photymus pyralis. The applied promoter sequence contained several protein binding sites facilitating the expression of the HSP-70 gene. The HSP promoter-luciferase heterologous gene construct was built in a pBR based plasmid vector that can be selected for neomycin. This HSP-70-luciferase plasmid was transfected into mouse fibroblast L929 cells. The assay was performed as follows.
The HSP-70-luc plasmid containing L929 cells are grown in DMEM (Dulbecco's Modified Eagle's Medium) medium supplemented with 5% FCS (Fetal Calf Serum). 10^4 cells are plated in the wells of a 24-well Costar cell culture plate in 1 ml of culture medium. Test substances are dissolved in PBS (Phosphate Buffered Saline) in 10^−2 M concentration. After attachment of the cells (3-4 hours after plating) 10 μl of the solution are given to the cultures and cells are incubated for 30 min. at 37° C. in a CO2 thermostat. Culture medium is then changed for fresh one (without test substance) and cells are allowed to regenerate for 1 hour at 37° C., then once washed with PBS. After removal of PBS 40 μl of 1× lysis buffer are added to the cells, and the samples are kept on ice for 30 minutes. Then the samples are transferred into Eppendorf vials and centrifuged at 14000 rpm for 20 min at 4° C. 5 μl of the supernatant is added to 25 μl of luciferase assay buffer and the luminescence of the samples is measured for 25 seconds in a luminometer.

[3] = biological target: Moloney murine leukemia virus reverse transcriptase (Moloney murine leukemia virus, UniProt P03355); experiment: Reverse transcriptase inhibition, (3H)dTTP incorporation; type: biochemical; details: for reverse transcriptase inhibiting effect compared with Nevirapin and AZT, in words: dose dependent, lower than AZT; for inhibition at 0.5 µg/mL: concentration 0.5 μg/ml; for inhibition at 1 µg/mL: concentration 1.0 μg/ml
Method: The compounds may be sorted into group of the non-nucleoside type reverse transcriptase inhibitors. Tests were performed on Moloney murine leukemia virus reverse transcriptase that is considered as a good model of the HIV reverse transcriptase enzyme. The experimental assembly was the following.
The assay measures the incorporation of (3H)dTTP into cDNA using poly(dA) template and oligo(dT)12-18 primer. The reaction was carried out in 20 μl volume.
The reaction was started by addition of 5U reverse transcriptase
The reaction mixture was incubated for 40 min at 37° C. Then 15 μl of the reaction mixture was loaded on Whatman DE81 filter discs and filters were washed sequentially with 5% disodium hidrogen phosphate buffer, with water and with 96% (v/v) ethanol. After drying, the filters were placed into scintillation cocktail (OptiPhase, HiSafe, Wallac) and the radioactivity was measured in a Packard Tri-Carb 2200 scintillation counter.
Two compounds with known inhibitory activity were used in the experiments as positive control. AZT is a nucleoside analog while the compound Nevirapin is a non-nucleoside type inhibitor. Nevirapine binds to the so called benzodiazepine binding site of the enzyme. The applied concentrations of the test compounds were in the 0.2-2 μg/ml concentration range.

[4] = test system: carnitine-palmitoyl transferase (CPTI); experiment: Determination of CPTI inhibition; type: biochemical; details: None = 100; sub-millimolar concentration range

Structure (SMILES) | IC50 [1] | responders at 1 mg/kg (male SPRD rats) | responders at 5 mg/kg (male SPRD rats) | GLUCOSE (mean ± s.d.) (CD-1 female mice; 160 mg/kg streptozotocin i.p. + 200 mg/kg compound p.o., blood, third day, control 4.78 ± 2.13) | blood glucose concentration enhanced by streptozotocin, in words (CD-1 female mice; 200 mg/kg p.o.) | activity at 30 µg/mL (HepG2 cells) | effect on survival of reperfusion arrhythmia, in words (male SPRD rats) | Activity (HSP-70 promoter luciferase) [2] | reverse transcriptase inhibiting effect compared with Nevirapin and AZT, in words [3] | CPTI test in % [4] | inhibition at 0.2 µg/mL ([3]; concentration 0.2 μg/ml, read-out: Enzyme inhibition, %) | inhibition at 0.5 µg/mL ([3]; read-out: Enzyme inhibition, %) | inhibition at 1 µg/mL ([3]; read-out: Enzyme inhibition, %) | inhibition at 2 µg/mL ([3]; concentration 2 μg/ml, read-out: Enzyme inhibition, %)
COc1ccc(C=CC(N)=NOCCCN2CCCCC2)cc1OC [Example 2, O-(3-Piperidino-propyl)-3,4-Dimethoxycinnamic Acid Amidoxime Hydrochloride] | 15 µM | 41.7% | 100% | 8.16 ± 0.65 | remarkably reduces the blood glucose concentration | 118% | – | – | – | – | – | – | – | –
NC(C=Cc1ccccc1)=NOCC(O)CN1CCCCC1 (stereo not drawn) [Example 4, O-(3-Piperidino-2-hydroxy-propyl)-cinnamic Acid Amidoxime Dihydrochloride] | 27 µM | 16.7% | 81.8% | – | – | 118% | similarly outstanding effect | 250 | higher than that of Nevirapin | – | – | – | – | –
NC(C=Cc1ccccc1)=NOCCCN1CCCCC1 [Example 1, O-(3-Piperidino-propyl)-cinnamic Acid Amidoxime Dihydrochloride] | 13.9 µM | 70% | 46% | – | – | – | similarly outstanding effect | 107 | – | 60.1 ± 2.1% | 6% | 29% | 44% | –
NC(C=Cc1cccnc1)=NOCCCN1CCCCC1 [Example 3, O-(3-Piperidino-propyl)-3-(3-Pyridyl)acrylic Acid Amidoxime Hydrochloride] | 8.32 µM | – | 40% | – | – | – | – | 207 | higher than that of Nevirapin | 68.8 ± 3.2% | – | 7% | 45% | 70%
